According to ChEMBL document CHEMBL1817626, “The structure-activity relationship of urea derivatives as anti-tuberculosis agents” (Bioorg Med Chem, 2011):
Converted amounts (≈) assume the structure as drawn. The source made the active and inactive calls. The calls are words filed in the database; no cut-off is given here.

Legend:
[1] = biological target: T1, Hydrolase, alpha/beta hydrolase fold family (Mycobacterium tuberculosis) (UniProt O69638); assay: Inhibition of Mycobacterium tuberculosis recombinant EphE expressed in Escherichia coli BL21 using CMNPC as substrate at 10 nM after 30 mins by fluorescent assay relative to control
T1 sequence (whole entry): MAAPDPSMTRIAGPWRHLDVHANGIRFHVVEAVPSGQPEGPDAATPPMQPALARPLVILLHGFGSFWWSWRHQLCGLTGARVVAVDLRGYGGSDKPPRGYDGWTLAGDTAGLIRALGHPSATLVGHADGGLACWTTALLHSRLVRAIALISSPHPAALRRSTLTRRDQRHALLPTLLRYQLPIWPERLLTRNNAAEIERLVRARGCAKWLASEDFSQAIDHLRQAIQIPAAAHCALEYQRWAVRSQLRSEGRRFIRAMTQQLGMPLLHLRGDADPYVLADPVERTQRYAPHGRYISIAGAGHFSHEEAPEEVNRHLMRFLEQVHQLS

[2] = biological target: T2, Bifunctional epoxide hydrolase 2 (Homo sapiens, UniProt P34913); assay: Inhibition of human recombinant soluble epoxide hydrolase using CMNPC as substrate after 10 mins by fluorescent assay
T2 sequence (P34913 whole entry): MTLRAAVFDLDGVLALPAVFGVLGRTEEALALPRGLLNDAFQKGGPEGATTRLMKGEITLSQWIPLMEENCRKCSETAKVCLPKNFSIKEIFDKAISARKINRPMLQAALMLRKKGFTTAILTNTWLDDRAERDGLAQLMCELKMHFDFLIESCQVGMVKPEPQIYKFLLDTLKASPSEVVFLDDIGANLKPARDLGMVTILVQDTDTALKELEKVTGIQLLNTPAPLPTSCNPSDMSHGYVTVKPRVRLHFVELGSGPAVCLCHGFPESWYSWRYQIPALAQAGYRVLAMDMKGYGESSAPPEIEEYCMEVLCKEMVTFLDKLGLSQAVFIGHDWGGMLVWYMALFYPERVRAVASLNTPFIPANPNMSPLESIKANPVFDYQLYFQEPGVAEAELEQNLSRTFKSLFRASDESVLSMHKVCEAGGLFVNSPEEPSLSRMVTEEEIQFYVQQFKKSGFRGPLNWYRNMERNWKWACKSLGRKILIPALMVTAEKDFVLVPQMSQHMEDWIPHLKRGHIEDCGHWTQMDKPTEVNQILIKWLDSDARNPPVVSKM

[3] = system: Enterococcus faecium; assay: Antibacterial activity against Enterococcus faecium; type: functional
[4] = system: Enterococcus faecalis; assay: Antibacterial activity against Enterococcus faecalis; type: functional
[5] = system: Staphylococcus aureus; assay: Antibacterial activity against Staphylococcus aureus; type: functional
[6] = system: Escherichia coli; assay: Antibacterial activity against Escherichia coli […] TolC; type: functional
[7] = system: Escherichia coli; assay: Antibacterial activity against Escherichia coli K12; type: functional; settings: K-12
[8] = system: Pseudomonas aeruginosa; assay: Antibacterial activity against Pseudomonas aeruginosa; type: functional
[9] = system: Klebsiella pneumoniae; assay: Antibacterial activity against Klebsiella pneumoniae; type: functional
[10] = system: Vero; assay: Cytotoxicity against african green monkey Vero cells after 72 hrs by MTT assay; type: cell-based; settings: Chlorocebus sabaeus
[11] = biological target: T3, Epoxide hydrolase B (Mycobacterium tuberculosis) (UniProt P95276); assay: Inhibition of Mycobacterium tuberculosis recombinant EphB expressed in Escherichia coli BL21 using CMNPC as substrate at 10 nM after 30 mins by fluorescent assay relative to control
T3 sequence (whole entry): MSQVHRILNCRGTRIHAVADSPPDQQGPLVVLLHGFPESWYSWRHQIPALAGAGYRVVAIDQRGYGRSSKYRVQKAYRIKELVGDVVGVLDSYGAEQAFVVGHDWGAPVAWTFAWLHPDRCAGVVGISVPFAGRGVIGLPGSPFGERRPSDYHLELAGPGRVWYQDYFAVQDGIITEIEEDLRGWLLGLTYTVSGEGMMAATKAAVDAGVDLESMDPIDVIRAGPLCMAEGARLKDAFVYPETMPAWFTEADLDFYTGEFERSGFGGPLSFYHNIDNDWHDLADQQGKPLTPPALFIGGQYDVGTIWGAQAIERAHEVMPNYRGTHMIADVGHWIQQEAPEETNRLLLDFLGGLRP

[12] = system: Bacillus anthracis; assay: microbe, parasite or virus in culture
[13] = system: Mycolicibacterium smegmatis; assay: microbe, parasite or virus in culture; settings: str. MC2 155, 168 h
[14] = system: Mycobacterium tuberculosis; assay: microbe, parasite or virus in culture; settings: H37Rv, 168 h

| SMILES | inhibition [1] [%] | IC50 [2] [nM] | MIC [3] [µg/mL] | MIC [4] [µg/mL] | MIC [5] [µg/mL] | MIC [6] [µg/mL] | MIC [7] [µg/mL] | MIC [8] [µg/mL] | MIC [9] [µg/mL] | IC50 [10] [µg/mL] | inhibition [11] | MIC [12] [µg/mL] | MIC [13] [µg/mL] | MIC [14] [µg/mL] |
| --- | --- | --- | --- | --- | --- | --- | --- | --- | --- | --- | --- | --- | --- | --- |
| CCCCCCNC(=O)NC1C2CC3CC(C2)CC1C3 (configuration not stated) | 100 | 1 | > 200 | > 200 | > 200 | > 200 | > 200 | > 200 | > 200 | 175 (≈ 628 µM) | 32% | > 200 | 6.25 (≈ 22.4 µM) | 0.01 (≈ 0.0359 µM) |
| Cc1ccc(NC(=O)NC2CCCCCCC2)cc1Cl | 98.2 | 0.4 | > 200 | > 200 | > 200 | > 200 | > 200 | > 200 | > 200 | > 400 | 83.6% | > 200 | 0.8 (≈ 2.71 µM) | 0.01 (≈ 0.0339 µM) |
| Cc1ccc(NC(=O)NCC23CC4CC(CC(C4)C2)C3)cc1Cl | 94.1 | 0.4 | > 200 | > 200 | > 200 | > 200 | > 200 | > 200 | > 200 | 4.34 (≈ 13 µM) | 33.9% | > 200 | 0.8 (≈ 2.4 µM) | 0.02 (≈ 0.0601 µM) |
| CC(C)OCCNC(=O)NC12CC3CC(CC(C3)C1)C2 | 14.7 | 260 | > 200 | > 200 | > 200 | > 200 | > 200 | > 200 | > 200 | 6.4 (≈ 22.8 µM) | 11.9% | > 200 | 200 (≈ 713 µM) | 25 (≈ 89.2 µM) |
| O=C(NCc1ccccc1)NC1C2CC3CC(C2)CC1C3 (configuration not stated) | 34.1 | 14.8 | > 200 | > 200 | > 200 | > 200 | > 200 | > 200 | > 200 | 4.2 (≈ 14.8 µM) | inactive | > 200 | 100 (≈ 352 µM) | 3.1 (≈ 10.9 µM) |
| COCCCNC(=O)NC12CC3CC(CC(C3)C1)C2 | 35.9 | 386 | > 200 | > 200 | > 200 | > 200 | > 200 | > 200 | > 200 | 20.4 (≈ 76.6 µM) | 23.7% | > 200 | 200 (≈ 751 µM) | 100 (≈ 375 µM) |
| Cc1c(Cl)cccc1NC(=O)NC1C2CC3CC(C2)CC1C3 (configuration not stated) | 58.3 | 4.5 | > 200 | > 200 | > 200 | > 200 | > 200 | > 200 | > 200 | 26.4 (≈ 82.8 µM) | 9.8% | > 200 | > 100 | 1.6 (≈ 5.02 µM) |
| CCCCCCCNC(=O)NC1C2CC3CC(C2)CC1C3 (configuration not stated) | 99.9 | 0.5 | > 200 | > 200 | > 200 | > 200 | > 200 | > 200 | > 200 | 20 (≈ 68.4 µM) | 37.1% | > 200 | 1.6 (≈ 5.47 µM) | 0.2 (≈ 0.684 µM) |
| COC(=O)c1ccc(NC(=O)NC23CC4CC(CC(C4)C2)C3)cc1O | 79.5 | 1.2 | > 200 | > 200 | > 200 | > 200 | > 200 | > 200 | > 200 | 30.3 (≈ 88 µM) | 26.9% | > 200 | 50 (≈ 145 µM) | 0.4 (≈ 1.16 µM) |
| CC1C(NC(=O)Nc2ccc(F)c(F)c2F)CC2CC1C2(C)C (configuration not stated) | 86.1 | 0.4 | > 200 | > 200 | 3.12 (≈ 9.56 µM) | 1.6 (≈ 4.9 µM) | > 200 | > 200 | > 200 | 16 (≈ 49 µM) | 76.3% | 3.12 (≈ 9.56 µM) | 0.8 (≈ 2.45 µM) | 0.02 (≈ 0.0613 µM) |
| CC(CCc1ccccc1)NC(=O)Nc1cccc(C(F)(F)F)c1F (configuration not stated) | 63.9 | 1.9 | 100 (≈ 282 µM) | 100 (≈ 282 µM) | > 200 | 6.25 (≈ 17.6 µM) | > 200 | > 200 | > 200 | 38.5 (≈ 109 µM) | inactive | > 200 | 6.25 (≈ 17.6 µM) | 1.6 (≈ 4.52 µM) |
| CCCCCNC(=O)NC1C2CC3CC(C2)CC1C3 (configuration not stated) | 90.5 | 6.4 | > 200 | > 200 | > 200 | > 200 | > 200 | > 200 | > 200 | 11.6 (≈ 43.9 µM) | 58.6% | > 200 | 12.5 (≈ 47.3 µM) | 0.39 (≈ 1.47 µM) |
| O=C(Nc1cccc(C(F)(F)F)c1F)NC1CCCCCCC1 | 56.3 | 0.4 | > 200 | > 200 | > 200 | 25 (≈ 75.2 µM) | > 200 | > 200 | > 200 | 25.3 (≈ 76.1 µM) | 17% | 3.12 (≈ 9.39 µM) | 0.4 (≈ 1.2 µM) | 0.8 (≈ 2.41 µM) |
| Cc1ccc(NC(=O)NCc2cccc(F)c2)cc1Cl | 19 | 16.6 | > 200 | > 200 | > 200 | > 200 | > 200 | > 200 | > 200 | 342 (≈ 1170 µM) | 18.6% | > 200 | > 200 | 6 (≈ 20.5 µM) |
| CCCOCCNC(=O)NC12CC3CC(CC(C3)C1)C2 | 35 | 243 | > 200 | > 200 | > 200 | 200 (≈ 713 µM) | > 200 | > 200 | > 200 | 265 (≈ 944 µM) | 16.6% | > 200 | 200 (≈ 713 µM) | 25 (≈ 89.2 µM) |
| CC(=O)c1cccc(NC(=O)NC2C3CC4CC(C3)CC2C4)c1 (configuration not stated) | 31.4 | 0.5 | > 200 | > 200 | > 200 | > 200 | > 200 | > 200 | > 200 | 9.7 (≈ 31 µM) | 80.6% | > 200 | 6.25 (≈ 20 µM) | 0.1 (≈ 0.32 µM) |
| CCCCCCCNC(=O)Nc1ccc(C)c(Cl)c1 | 99.3 | 1.6 | > 200 | > 200 | > 200 | > 200 | > 200 | > 200 | > 200 | 186 (≈ 659 µM) | 91% | > 200 | > 200 | 3.1 (≈ 11 µM) |
| O=C(NCCc1ccccc1)NC1C2CC3CC(C2)CC1C3 (configuration not stated) | 87.9 | 4.5 | > 200 | > 200 | > 200 | > 200 | > 200 | > 200 | > 200 | 30.2 (≈ 101 µM) | 34.1% | > 200 | 25 (≈ 83.8 µM) | 0.01 (≈ 0.0335 µM) |
